From patent US20130217713A1, “PREDICTIVE MARKER FOR EGFR INHIBITOR TREATMENT” (Hoffmann-La Roche Inc., priority 2007, published 2013)
Read-outs that look alike come from different tables or passages of the source.

Assays:
[1] = test system: NSCLC; conditions: single agent, NSCLC patients after failure of standard therapy for advanced disease; cited from earlier work
[2] = test system: advanced NSCLC; conditions: 75 patients with qRT-PCR results
[3] = patients with cancer, 150 mg/day; compared with targeted average plasma concentration; cited from earlier work
[4] = test system: NSCLC; conditions: cited from earlier work
[5] = test system: NSCLC; conditions: second line therapy of NSCLC; cited from earlier work

## C#Cc1cccc(Nc2ncnc3cc(OCCOC)c(OCCOC)cc23)c1 [Tarceva, erlotinib]
[1]
  survival: significantly prolongs and improves the survival
[2]
  PD: 39 (52%) n (%)
  partial response (PR): 4 (5%) n (%)
[3]
  drug levels in plasma: > 500 ng/mL

## CC(=O)O[C@@]12CO[C@@H]1C[C@H](O)[C@@]1(C)C(=O)[C@H](O)C3=C(C)[C@@H](OC(=O)[C@H](O)[C@@H](NC(=O)OC(C)(C)C)c4ccccc4)C[C@@](O)([C@@H](OC(=O)c4ccccc4)[C@H]21)C3(C)C [docetaxel]
[4]; docetaxel as third-line treatment or beyond
  survival, third-line treatment or beyond: no prolongation of survival
[4]; second line after cisplatin-based first-line regimens failed, ECOG 0, 1 or 2
  survival: improved survival

## Nc1nc2[nH]cc(CCc3ccc(C(=O)N[C@@H](CCC(=O)O)C(=O)O)cc3)c2c(=O)[nH]1 [pemetrexed]
[5]
  efficacy compared with docetaxel: clinically equivalent efficacy
  side effects compared with docetaxel: significantly fewer side effects
